Calls of active or inactive are those of the source. No cut-off for these calls is given here.

Data on 32 compounds can be found in ChEMBL document CHEMBL5053551, “Structure-Based Design of Dual Partial Peroxisome Proliferator-Activated Receptor γ Agonists/Soluble Epoxide Hydrolase Inhibitors” (J Med Chem, 2021).

For series [1], the target named is T1, Bifunctional epoxide hydrolase 2 (Homo sapiens, UniProt P34913).
T1 sequence (P34913 whole entry): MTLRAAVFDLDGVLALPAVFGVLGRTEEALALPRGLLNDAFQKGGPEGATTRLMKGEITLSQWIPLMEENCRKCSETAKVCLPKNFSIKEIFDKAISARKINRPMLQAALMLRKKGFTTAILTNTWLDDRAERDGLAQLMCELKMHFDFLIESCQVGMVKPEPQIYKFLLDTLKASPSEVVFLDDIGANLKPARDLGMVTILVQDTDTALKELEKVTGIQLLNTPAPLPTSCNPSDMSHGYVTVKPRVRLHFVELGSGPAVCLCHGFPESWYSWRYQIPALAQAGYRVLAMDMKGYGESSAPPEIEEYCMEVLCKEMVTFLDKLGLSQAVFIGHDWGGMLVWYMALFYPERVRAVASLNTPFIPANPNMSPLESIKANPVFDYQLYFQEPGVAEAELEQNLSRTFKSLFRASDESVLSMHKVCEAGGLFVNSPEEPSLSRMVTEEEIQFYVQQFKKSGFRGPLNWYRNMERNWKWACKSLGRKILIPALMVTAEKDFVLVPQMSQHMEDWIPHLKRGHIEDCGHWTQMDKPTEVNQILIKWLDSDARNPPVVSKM
In words: Inhibition of recombinant human full length sEH assessed as reduction in 6-methoxy-2-naphthaldehyde formation using PHOME as substrate preincubated for 30 to 45 mins followed by substrate addition and measured after 30 to 45 mins by fluorescence assay.

The target of series [2] is T2, Peroxisome proliferator-activated receptor gamma (Homo sapiens) (UniProt P37231).
T2 sequence (whole entry): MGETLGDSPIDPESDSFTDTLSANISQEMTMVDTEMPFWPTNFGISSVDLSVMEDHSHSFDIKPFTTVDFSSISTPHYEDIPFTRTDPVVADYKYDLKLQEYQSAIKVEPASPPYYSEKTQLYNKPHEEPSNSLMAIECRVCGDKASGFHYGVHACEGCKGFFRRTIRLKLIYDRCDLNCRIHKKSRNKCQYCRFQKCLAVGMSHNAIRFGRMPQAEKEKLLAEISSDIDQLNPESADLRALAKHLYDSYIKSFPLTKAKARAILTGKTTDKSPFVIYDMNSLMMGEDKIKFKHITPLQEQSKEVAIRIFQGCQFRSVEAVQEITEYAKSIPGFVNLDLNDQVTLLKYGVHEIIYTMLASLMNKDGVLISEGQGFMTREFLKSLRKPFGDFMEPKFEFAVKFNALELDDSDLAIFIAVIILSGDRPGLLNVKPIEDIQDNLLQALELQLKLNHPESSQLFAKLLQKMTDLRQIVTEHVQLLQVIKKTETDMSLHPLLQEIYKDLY
In words: Partial agonist activity at GAL4-tagged human PPARgamma LBD expressed in HEK293T cells at 10 uM incubated for 12 to 14 hrs by dual-Glo luciferase assay. The following applies: time 12-14 hrs. In kind it is cell-based.

Series [3] addresses T3, Peroxisome proliferator-activated receptor gamma (Homo sapiens, UniProt P37231).
T3 sequence (P37231 whole entry): T2 sequence (whole entry)
In words: Partial agonist activity at GAL4-tagged human PPARgamma LBD expressed in HEK293T cells incubated for 12 to 14 hrs by dual-Glo luciferase assay. The format is cell-based.

Series [4] can be described thus: Stability of compound in Sprague-Dawley rat liver microsomes assessed as half life at 10 uM preincubated for 5 mins in presence of NADPH regenerating system followed by microsomal addition and measured upto 60 mins by HPLC analysis. The format is ADME, Microsome. The settings on record: time 65 min. (In general: Liver microsomes are vesicles of endoplasmic reticulum, rich in cytochrome P450 enzymes.)

A short description of series [5]: Stability of compound in BALB/c mouse liver microsomes assessed as half life at 10 uM preincubated for 5 mins in presence of NADPH regenerating system followed by microsomal addition and measured upto 60 mins by HPLC analysis. The following applies: time 65 min. The format is ADME, Microsome.
The nature of series [6]: Stability of compound in human liver microsomes assessed as half life at 10 uM preincubated for 5 mins in presence of NADPH regenerating system followed by microsomal addition and measured upto 60 mins by HPLC analysis. In kind it is ADME, Microsome. The settings on record: time 65 min.

One may read the IC50 as the concentration that inhibits the measured activity by half. For `O=C(NCc1ccccc1C(F)(F)F)c1ccc2c(c1)[nH]c(=O)n2CC1CCCCC1`, the IC50 in series [1] came out at 0.322 µM.

With `O=C(NCc1ccccc1C(F)(F)F)c1ccc2c(c1)[nH]c(=O)n2Cc1ccc(Cl)cc1`, in series [1], the IC50 is 0.197 µM. In addition, in series [2], the result was inactive.

Turning to `Nc1ccc(CNC(=O)c2ccc3c(ccn3Cc3cccc(F)c3)c2)c(C(F)(F)F)c1`, the IC50 in series [1] came out at 0.007 µM.

`O=C(NCc1ccccc1C(F)(F)F)c1ccc2c(c1)[nH]c(=O)n2Cc1ccccn1`: the IC50 in series [1] was 0.456 µM. In addition, in series [2], the result was inactive.

As usually defined, the EC50 is the concentration needed to bring the measured effect to its halfway point. In the case of `CCS(=O)(=O)Nc1ccc(CNC(=O)c2ccc3c(ccn3Cc3cccc(F)c3)c2)c(C(F)(F)F)c1`, the IC50 in series [1] was found to be 0.003 µM. In series [3], this compound displayed an EC50 of 0.37 µM.

As for `CC(C)n1ccc2cc(C(=O)NCc3ccc(NS(=O)(=O)C4CC4)cc3C(F)(F)F)ccc21`, the IC50 in series [1] came to 0.005 µM. This compound displayed an EC50 in series [3] of 0.49 µM.

For the compound `O=C(NCc1ccccc1C(F)(F)F)c1ccc2c(c1)[nH]c(=O)n2Cc1ccc(Cl)c(Cl)c1`, in series [1], the IC50 is 1.09 µM.

As to `O=C(NCc1ccccc1C(F)(F)F)c1ccc2c(c1)ncn2Cc1cccc(F)c1`, the 50% inhibitory concentration (IC50) in series [1] was 0.107 µM.

For `O=C(NCc1ccccc1C(F)(F)F)c1ccc2c(ccn2Cc2cccc(F)c2)c1`, the IC50 in series [1] worked out at 0.321 µM.

What is called half-life is the time in which the quantity being followed falls by half. Turning to `CC(C)Cn1ccc2cc(C(=O)NCc3ccc(NS(=O)(=O)C4CC4)cc3C(F)(F)F)ccc21`, the half-inhibitory concentration (IC50) in series [1] came to 0.002 µM. Further, the half-life at 10 µM in series [4] stood at 41 min; in series [5], 53 min; in series [6], 76 min.

Consider `O=C(NCc1ccccc1C(F)(F)F)c1ccc2c(c1)[nH]c(=O)n2Cc1ccccc1F`, for which the IC50 in series [1] was found to be 0.055 µM. For the same compound, the result in series [2] was inactive.

Turning to `O=C(NCc1ccccc1C(F)(F)F)c1ccc2c(cnn2Cc2cccc(F)c2)c1`, the IC50 in series [1] came to 0.036 µM. The compound further yielded an EC50 in series [3] of 1.6 µM.

On to `CSCc1ccc(CNC(=O)c2ccc3c(ccn3Cc3cccc(F)c3)c2)c(C(F)(F)F)c1`, for which the IC50 in series [1] came out at 0.006 µM. The EC50 in series [3] worked out at 1.43 µM.

With `COc1ccc(CNC(=O)c2ccc3c(cnn3Cc3cccc(F)c3)c2)c(C(F)(F)F)c1`, the IC50 in series [1] is 0.022 µM. Also, the EC50 in series [3] was determined as 1.59 µM.

Turning to `COc1ccc(CNC(=O)c2ccc3c(c2)[nH]c(=O)n3Cc2ccccc2)c(C(F)(F)F)c1`, the IC50 in series [1] is 0.028 µM.

As to `O=C(NCc1ccc(NC(=O)C(F)(F)F)cc1C(F)(F)F)c1ccc2c(ccn2Cc2cccc(F)c2)c1`, the IC50 in series [1] is 0.005 µM.

As to `O=C(NCc1ccccc1C(F)(F)F)c1ccc2c(c1)[nH]c(=O)n2Cc1ccc(Cl)cc1Cl`, in series [1], the IC50 came to 0.1 µM. Also, the outcome in series [2] was inactive.

For `COc1ccc(CNC(=O)c2ccc3c(c2)[nH]c(=O)n3Cc2cccc(F)c2)c(C(F)(F)F)c1`, the IC50 in series [1] is 0.029 µM.

As to `COc1ccc(CNC(=O)c2ccc3c(ccn3Cc3cccc(F)c3)c2)c(C(F)(F)F)c1`, the half-maximal inhibitory concentration (IC50) in series [1] was 0.31 µM. This compound returned a half-maximal effective concentration (EC50) in series [3] of 0.85 µM.

As to `O=C(NCc1ccccc1C(F)(F)F)c1ccc2c(c1)[nH]c(=O)n2Cc1cc(F)cc(F)c1`, the IC50 in series [1] turned out to be 0.048 µM.

On to `O=C(NCc1ccccc1C(F)(F)F)c1ccc2c(c1)[nH]c(=O)n2Cc1ccccc1C(F)(F)F`, for which the IC50 in series [1] is 0.304 µM.

As for `O=C(NCc1ccc(NS(=O)(=O)C2CC2)cc1C(F)(F)F)c1ccc2[nH]ccc2c1`, the IC50 in series [1] came out at 0.029 µM. In series [3], this compound came in with an EC50 of 1.48 µM.

In the case of `O=C(NCc1ccccc1C(F)(F)F)c1ccc2c(c1)[nH]c(=O)n2Cc1ccccc1`, the IC50 in series [1] was 0.082 µM.

Take `COc1ccccc1Cn1c(=O)[nH]c2cc(C(=O)NCc3ccccc3C(F)(F)F)ccc21`: the IC50 in series [1] turned out to be 0.319 µM. In series [2], the result was inactive.

Take `CS(=O)(=O)Cc1ccc(CNC(=O)c2ccc3c(ccn3Cc3cccc(F)c3)c2)c(C(F)(F)F)c1`: the IC50 in series [1] is 0.006 µM. Also, a half-maximal effect in series [3] (EC50) was put at 1.35 µM.

As for `O=C(NCc1ccccc1C(F)(F)F)c1ccc2c(c1)[nH]c(=O)n2Cc1ccc(F)cc1`, in series [1], the IC50 was 0.142 µM. Also, the outcome in series [2] was inactive.

On to `COc1ccc(CNC(=O)c2ccc3c(c2)ncn3Cc2cccc(F)c2)c(C(F)(F)F)c1`, for which, in series [1], the IC50 was 0.04 µM.

As to `CN(C)CCn1ccc2cc(C(=O)NCc3ccc(NS(=O)(=O)C4CC4)cc3C(F)(F)F)ccc21`, in series [1], the IC50 was determined as 0.028 µM. Also, in series [2], the result was inactive.

Consider `O=C(NCc1ccccc1C(F)(F)F)c1ccc2c(c1)[nH]c(=O)n2Cc1cccc(Cl)c1`, for which the IC50 in series [1] is 0.087 µM.

On to `O=C(NCc1ccccc1C(F)(F)F)c1ccc2c(c1)[nH]c(=O)n2Cc1ccccc1Cl`, for which, in series [1], the half-maximal inhibitory concentration (IC50) stood at 0.171 µM.

For `O=C(NCc1ccccc1C(F)(F)F)c1ccc2c(c1)[nH]c(=O)n2Cc1cccc(F)c1`, the IC50 in series [1] amounted to 0.153 µM. The EC50 in series [3] turned out to be 0.12 µM.

With `CC(C)S(=O)(=O)n1ccc2cc(C(=O)NCc3ccc(NS(=O)(=O)C4CC4)cc3C(F)(F)F)ccc21`, the IC50 in series [1] is 0.002 µM. Besides, the EC50 in series [3] came out at 1.05 µM.
